Assay results: patent US9580396B2, “C6-spiro iminothiadiazine dioxides as BACE inhibitors, compositions, and their use” (Merck Sharp & Dohme Corp., priority 2012, dated 2017)

What was measured:
[1] = target: purified human autoBACE-2 (Homo sapiens (Human), UniProt Q9Y5Z0); assay: BACE-2 Assay (BACE-HTRF assay); type: biochemical; conditions: Ki calculated from IC50 using the Cheng-Prusoff equation; QSY7-EISEVNLDAEFC-Eu-amide substrate, pH 5.0; read-out: BACE2 Ki
Description: Inhibitor IC50s at purified human autoBACE-2 are determined in a time-resolved endpoint proteolysis assay that measures hydrolysis of the QSY7-[…]-Eu-amide FRET peptide substrate (BACE-HTRF assay). […] DMSO is present at 5% final concentration in the assay. Following laser excitation of sample wells at 320 nm, the fluorescence signal at 620 nm is collected for 400 ms following a 50 μs delay on a RUBYstar HTRF plate reader (BMG Labtechnologies). Raw RFU data is normalized to maximum (1.0 nM BACE/DMSO) and minimum (no enzyme/DMSO) RFU values. […] The Ki values are calculated from the IC50 using the Cheng-Prusoff equation.

[2] = target: soluble human BACE1 catalytic domain (Homo sapiens (Human), UniProt P56817); assay: BACE1 HTRF FRET Assay; type: biochemical; conditions: Ki calculated from IC50 using the Cheng-Prusoff equation; QSY7-APPswe-Eu substrate, pH 5.0
Source text: Na^+-Acetate pH 5.0; 1% Brij-35; Glycerol; Dimethyl Sulfoxide (DMSO); Recombinant human soluble BACE1 catalytic domain (>95% pure); APP Swedish mutant peptide substrate (QSY7-APP^swe-Eu): QSY7-EISEVNLDAEFC-Europium-amide.
A homogeneous time-resolved FRET assay can be used to determine IC50 values for inhibitors of the soluble human BACE1 catalytic domain. This assay monitors the increase of 620 nm fluorescence that resulted from BACE1 cleavage of an APPswedish APP^swe mutant peptide FRET substrate (QSY7-EISEVNLDAEFC-Europium-amide). This substrate contains an N-terminal QSY7 moiety that serves as a quencher of the C-terminal Europium fluorophore (620 nm Em). In the absence of enzyme activity, 620 nm fluorescence is low in the assay and increased linearly over 3 hours in the presence of uninhibited BACE1 enzyme Inhibition of BACE1 cleavage of the QSY7-APP^swe-Eu substrate by inhibitors is manifested as a suppression of 620 nm fluorescence.
Varying concentrations of inhibitors at 3× the final desired concentration in a volume of 10 ul are preincubated with purified human BACE1 catalytic domain (3 nM in 10 μl) for 30 minutes at 30° C. in reaction buffer containing 20 mM Na-Acetate pH 5.0, 10% glycerol, 0.1% Brij-35 and 7.5% DSMO. Reactions are initiated by addition of 10 μl of 600 nM QSY7-APP^swe-Eu substrate (200 nM final) to give a final reaction volume of 30 μl in a 384 well Nunc HTRF plate. The reactions are incubated at 30° C. for 1.5 hours. The 620 nm fluorescence is then read on a Rubystar HTRF plate reader (BMG Labtechnologies) using a 50 millisecond delay followed by a 400 millisecond acquisition time window Inhibitor IC50 values are derived from non-linear regression analysis of concentration response curves. Ki values are then calculated from IC50 values using the Cheng-Prusoff equation using a previously determined […] of 8 μM for the QSY7-APP^swe-Eu substrate at BACE1.

Chain of soluble human BACE1 catalytic domain (P56817 75-416): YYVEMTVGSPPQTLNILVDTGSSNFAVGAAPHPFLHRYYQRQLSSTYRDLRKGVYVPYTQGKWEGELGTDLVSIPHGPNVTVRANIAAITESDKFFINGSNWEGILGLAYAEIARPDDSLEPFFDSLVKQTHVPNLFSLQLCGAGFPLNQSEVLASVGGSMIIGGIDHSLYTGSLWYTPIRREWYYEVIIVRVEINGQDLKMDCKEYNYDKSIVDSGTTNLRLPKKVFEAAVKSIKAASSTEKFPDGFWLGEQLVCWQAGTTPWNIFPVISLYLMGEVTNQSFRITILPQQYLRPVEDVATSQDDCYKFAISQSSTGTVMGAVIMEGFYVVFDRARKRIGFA
Chain of purified human autoBACE-2 (Q9Y5Z0 63-473): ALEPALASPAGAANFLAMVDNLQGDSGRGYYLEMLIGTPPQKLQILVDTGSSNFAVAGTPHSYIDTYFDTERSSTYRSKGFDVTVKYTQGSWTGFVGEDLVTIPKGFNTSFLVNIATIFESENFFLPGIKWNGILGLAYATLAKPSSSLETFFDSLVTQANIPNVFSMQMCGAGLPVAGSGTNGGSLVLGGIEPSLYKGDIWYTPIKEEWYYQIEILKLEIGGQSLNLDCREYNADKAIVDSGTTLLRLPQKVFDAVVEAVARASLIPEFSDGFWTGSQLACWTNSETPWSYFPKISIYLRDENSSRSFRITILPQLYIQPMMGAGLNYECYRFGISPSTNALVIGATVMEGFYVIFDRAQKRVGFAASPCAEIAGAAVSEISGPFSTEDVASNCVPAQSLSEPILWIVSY

Row | SMILES | Ki [1] [µM] | Ki [2] [µM]
1 | CN1C(=N)N[C@@]2(CCCc3ccc(NC(=O)c4cnc(C(F)(F)F)cn4)cc32)CS1(=O)=O [Example 5s] | 0.685 | 0.253
2 | CN1C(=N)N[C@@]2(CCCc3ccc(NC(=O)c4cnsn4)cc32)CS1(=O)=O [Example 5t] | 0.056 | 0.264
3 | CN1C(=N)N[C@@]2(CCCc3ccc(NC(=O)c4cc5ccccn5n4)cc32)CS1(=O)=O [Example 5u] | 0.385 | 1.34
4 | CN1C(=N)N[C@@]2(CCCc3ccc(NC(=O)c4ccc(C(F)(F)F)cn4)cc32)CS1(=O)=O [Example 5v] | 0.171 | 0.055
5 | CN1C(=N)N[C@@]2(CCCc3ccc(NC(=O)c4ccn(C(F)F)n4)cc32)CS1(=O)=O [Example 5w] | 0.003 | 0.02
